≈ marks a conversion by molar mass, not a printed value. Read-outs that look alike come from different tables or passages of the source.
Columns and labels:
[1] = biological target: T1, Isoleucyl tRNA synthetase (Homo sapiens, UniProt P41252); assay: Inhibitory activity against isoleucyl tRNA synthetase; format: biochemical; details: for IC50: HT1080 cell lysate, [3H]isoleucine, 25° C., 20 minutes, read-out: IRS IC50 (converted)
T1 construct: 10 μg protein (HT1080 cell lysate); endogenous in cells; host or cells: HT1080 cell lysate
T1 sequence (P41252 1-1262): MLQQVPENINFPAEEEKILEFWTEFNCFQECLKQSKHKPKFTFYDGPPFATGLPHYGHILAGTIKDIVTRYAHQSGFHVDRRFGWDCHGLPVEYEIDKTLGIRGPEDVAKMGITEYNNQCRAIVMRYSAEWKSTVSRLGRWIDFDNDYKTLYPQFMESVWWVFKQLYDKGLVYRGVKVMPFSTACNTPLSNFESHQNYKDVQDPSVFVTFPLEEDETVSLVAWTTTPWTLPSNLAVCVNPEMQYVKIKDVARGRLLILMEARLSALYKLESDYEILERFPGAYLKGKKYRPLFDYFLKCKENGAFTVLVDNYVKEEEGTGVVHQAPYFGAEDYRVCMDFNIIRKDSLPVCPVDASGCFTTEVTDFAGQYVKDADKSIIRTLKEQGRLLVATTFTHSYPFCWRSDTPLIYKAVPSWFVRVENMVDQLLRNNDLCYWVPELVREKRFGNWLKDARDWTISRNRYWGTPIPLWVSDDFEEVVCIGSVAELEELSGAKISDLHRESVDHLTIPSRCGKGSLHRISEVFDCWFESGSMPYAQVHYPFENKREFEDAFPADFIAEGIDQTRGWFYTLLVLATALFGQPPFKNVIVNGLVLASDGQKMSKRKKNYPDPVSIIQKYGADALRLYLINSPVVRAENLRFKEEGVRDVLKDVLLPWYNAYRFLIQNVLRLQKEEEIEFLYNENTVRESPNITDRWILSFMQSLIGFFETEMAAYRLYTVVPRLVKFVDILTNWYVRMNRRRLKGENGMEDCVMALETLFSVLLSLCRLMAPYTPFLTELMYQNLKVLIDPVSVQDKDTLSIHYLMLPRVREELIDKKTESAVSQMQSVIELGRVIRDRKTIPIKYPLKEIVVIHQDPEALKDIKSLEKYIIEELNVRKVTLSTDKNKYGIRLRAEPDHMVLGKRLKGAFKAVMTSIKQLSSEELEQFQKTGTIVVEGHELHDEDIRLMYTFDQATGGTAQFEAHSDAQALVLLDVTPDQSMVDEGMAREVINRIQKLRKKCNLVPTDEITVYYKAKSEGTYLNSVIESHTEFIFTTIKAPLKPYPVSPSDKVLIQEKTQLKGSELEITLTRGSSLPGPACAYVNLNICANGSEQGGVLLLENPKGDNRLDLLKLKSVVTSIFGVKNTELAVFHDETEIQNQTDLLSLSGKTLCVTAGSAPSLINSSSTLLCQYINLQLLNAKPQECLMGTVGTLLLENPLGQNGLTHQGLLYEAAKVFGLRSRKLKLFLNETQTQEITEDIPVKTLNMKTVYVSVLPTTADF
Experimental: To a solution for enzymatic reaction [20 mM imidazole, pH 7.5, 75 mM MgCl2, 0.5 mM DTT, 1 U/ml tRNA (E. coli origin, manufactured by Sigma), 3 mM ATP, 1 μM isoleucine, 10 μCi/ml [^3H]isoleucine (manufactured by GE Healthcare), 10 μg protein (HT1080 cell lysate)], each of the agents in Table 5 was added at 1% (v/v) so as to attain a total amount of 100 μl and a reaction was carried out at 25° C. for 20 minutes. One mg/ml BSA solution (400 μl) and 10% TCA solution (500 μl) were then added thereto to terminate the reaction and left to stand at 4° C. overnight. A precipitate obtained by a centrifugal operation was transferred onto GF-C filter (manufactured by Whatman), washed three times with 5% TCA solution, followed by drying the filter. Two milliliters of aquasol-2 (manufactured by PerkinElmer) and the filter were placed in a vial and vigorously stirred, and then the amount of [^3H]isoleucine was measured by a liquid scintillation counter (manufactured by Beckman) to determine a rate of enzyme activity.

osteoclasts = assay: Growth inhibitory activity against osteoclast (TRAP positive multinucleated cell count); format: cell-based, mouse; details: for IC50: Osteoclast, read-out: OC IC50
Experimental: Bone marrow cells were harvested from thigh bone and shin bone of five-week male ddY mouse (manufactured by Japan SLC, Inc.), seeded in a type I collagen coated plate (manufactured by IWAKI) in a culture medium in which α-MEM medium (manufactured by Sigma-Aldrich) was added with 10% fetal bovine serum, 0.5% penicillin/streptomycin solution, 50 ng/ml human M-CSF (Leukoprol, manufactured by Kyowa Hakko), and 1 ng/ml human TGF-β1 (manufactured by R&D Systems), and maintained at 37° C. under a humidified culture of 5% CO2 for 3 days. Cells were then washed twice with PBS and then cells adhered on the plate were used as bone marrow macrophage cells. Bone marrow macrophage cells were further maintained in a culture medium in which α-MEM medium was added with 10% fetal-bovine serum, 0.5% penicillin/streptomycin solution, 50 ng/ml human M-CSF, 50 ng/ml human soluble RANKL (manufactured by Peprotech) at 37° C. under a humidified culture of 5% CO2 for 3 days to differentiate into osteoclasts.
Each of the agents in Table 5 was added to osteoclasts at 0.5% (v/v) and maintained at 37° C. under a humidified culture of 5% CO2 for 24 hours. Subsequently, cells were treated with PBS solution containing 3.7% formalin at room temperature for 30 minutes. After the solution was removed, the cells were further treated with acetone/ethanol solution (1:1 vol/vol) at room temperature for one minute and the solution was removed to dry the cells. Immobilized cells were subjected to a reaction in TRAP solution [50 mM sodium tartrate, 90 mM sodium acetate, 0.01% naphthol AS-MX phosphate (manufactured by Sigma), 0.05% fast red violet LB salt (manufactured by Sigma), pH 5.0] at room temperature for 30 minutes and then washed with distilled water. The number of TRAP positive multinucleated osteoclasts was counted and a rate of survival was determined.

Row | SMILES | IC50 [1] [nM] | enzyme inhibiting activity against the target molecule IRS (in words) ([1]; as compared with RM-A) | IC50 (osteoclasts; Mus musculus, 24 h) [µg/mL] | growth inhibiting actions against osteoclast (in words) (osteoclasts; summary of Table 5) | IC50 (osteoclasts; mouse bone marrow derived osteoclasts, 24 hours, rate of survival) [µg/mL]
1 | CCCCC1CCC2(CCC(C)C(C/C=C(C)/C=C/C(O)C(C)/C=C/C(=O)O)O2)OC1/C=C/C(C)=C/C(=O)O (stereo not shown) [RM-T] | 0.367 | higher | 6.2 (≈ 11.4 µM) | – | –
2 | CCCCCC[C@@]1(OC(=O)CCC(=O)O)CC[C@]2(CC[C@H](C)[C@@H](C/C=C(C)/C=C/[C@H](O)[C@@H](C)/C=C/C(=O)O)O2)O[C@H]1/C=C/C(C)=C/C(=O)O [RM-E] | 4.06 | – | 0.1 (≈ 0.145 µM) | exhibited growth inhibiting actions against osteoclast | –
3 | CCCC[C@@]1(OC(=O)CCC(=O)O)CC[C@]2(CC[C@H](C)[C@@H](C/C=C(C)/C=C/[C@H](O)[C@@H](C)/C=C/C(=O)O)O2)O[C@H]1/C=C/C(C)=C/C(=O)O [RM-A, Reveromycin A] | 9.38 | – | 0.06 (≈ 0.0908 µM) | – | –
4 | CCCC[C@H]1CC[C@]2(CC[C@H](C)[C@@H](C/C=C(C)/C=C/[C@H](O)[C@@H](C)/C=C/C(=O)OCC)O2)O[C@H]1/C=C/C(C)=C/C(=O)O [RM-T ethyl-ester] | 349 | – | – | – | 6 (≈ 10.5 µM)

Reference: patent US8980587B2, “Process for producing reveromycin A or a synthetic intermediate thereof, process for producing compounds containing a spiroketal ring and novel antineoplastics, fungicides and therapeutic agents for bone disorders” (RIKEN, priority 2010, dated 2015)
